Assay results from PubChem BioAssay AID1902 (Broad Institute, 2009).
Calls of active or inactive are those of the source.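 The calls were made as follows: active = EC50 no more than a set limit of log units above the highest dose; inactive = the rest.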

Target: S. pyogenes SKKanGAS, kanamycin survival, BacTiterGlo, 6 h
Test: S. pyogenes SKKanGAS kanamycin growth inhibitors – SKKanGAS strain, luminescence, dose confirmation, streptokinase promoter inhibitor project, dose response (AID 1902);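 also: lower survival reflects blocked streptokinase promoter driving kanamycin resistance gene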

| Structure (SMILES) | EC50 |
| --- | --- |
| CCOc1ccc(-c2nnc3ccc(SC(C)C)nn23)cc1 | 2.15 µM |
| CCOC(=O)c1sc(NC(=O)c2cc(-c3ccccc3C)nc3ccccc23)c(C#N)c1C | 1.36 µM |
| CCOC(=O)c1c(NC(=O)CCS(=O)(=O)c2ccccc2)sc2c1CCN(C)C2 | > 15 µM (inactive) |
| COc1cc2c3c(c1)/C(=C1/SC(=S)NC1=O)C(=O)N3C(C)(C)C=C2C | 1.1 µM |
| Clc1ccc(-c2ccc(/C=N/Nc3cc(N4CCOCC4)nc(N4CCOCC4)n3)o2)cc1 | 15.7 µM |
| CC(C)(C)c1ccc(C(=O)NCc2nnc(SCC(=O)NC3CCCC3)o2)cc1 | > 15 µM (inactive) |
| CC(Oc1ccc(Br)cc1)C(=O)Nc1nc(-c2ccccn2)cs1 (configuration not stated) | < 0.06 µM |
| CN1Cc2cc(C(=O)c3cc(Cl)cc(CSc4ncccn4)c3O)cnc2NC1=O | 9.39 µM |
| O=C(c1ccc(Cl)cc1)c1cnc(Nc2ccccc2Cl)s1 | 6.77 µM |
| COc1ccc(CCNC(=O)c2cccc(NS(=O)(=O)c3ccccc3F)c2)cc1OC | > 15 µM (inactive) |
| CCCCCCc1cc2cc(-c3nnc(-c4ccccc4)o3)c(=O)oc2cc1O | 3.05 µM |
| Nc1nc(-c2ccccc2)c(N=Nc2cccc3ccccc23)s1 | 4 µM |
| CCC(CO)Nc1ncnc2c1cnn2-c1ccc(OC)cc1 (configuration not stated) | > 15 µM (inactive) |
| COc1ccccc1CN1CN(S(=O)(=O)c2ccccc2)c2nc3ccccc3nc21 | 5.13 µM |
| Cc1cc(Cl)c2oc(C(=O)N3CCN(C(=O)c4ccco4)CC3)c(C)c2c1 | 4.45 µM |
| O=C(Nc1ccc2nc(-c3ccc4nc[nH]c4c3)[nH]c2c1)c1cccs1 | 15.7 µM |
| CCOC(=O)c1sc2ncnc(N3CCN(c4ccc(OC)cc4)CC3)c2c1C | 10.3 µM |
| Clc1ccccc1C(c1ccccc1)(c1ccccc1)n1ccnc1 | 6.21 µM |
| Cc1cccc2[nH]c3c(N4CC=C(c5ccc(F)cc5)CC4)ncnc3c12 | 2.14 µM |
| Oc1c(Br)cc(Br)cc1/C=N/Nc1ccc(Cl)nn1 | 0.481 µM |
| CCOC(=O)C1=C(Cc2ccc(C)cc2)C(=O)c2ccccc2C1=O | 4.64 µM |
| Nc1nc(N)c(C=Nc2ccc(Br)cc2)c(Nc2ccc(Br)cc2)n1 | 1.69 µM |

| Structure (SMILES) | EC50 |
| --- | --- |
| COc1ccc(-c2oc(NC(=O)CSc3ncn[nH]3)c(C#N)c2-c2ccc(OC)cc2)cc1 | 3.61 µM |
| CCOC(=O)c1ccc(NC(=O)c2nc[nH]c2C(=O)NCCCCCNC(=O)OC(C)(C)C)cc1 | 2.83 µM |
| COc1cc(OC)c2cc(C(=O)N/N=C/c3ccccc3O)[nH]c2c1 | 1.1 µM |
| CC1C/C(=N\NC(=S)NCc2ccccc2)CC(C)(C)C1 (configuration not stated) | 3.96 µM |
| COc1ccc(Cn2c(-c3ccco3)nc3oc4cc(OC)ccc4c(=O)c3c2=O)cc1 | 14.7 µM |
| O=C(C1CCCCC1)N1CCC(c2nc3c(nnn3Cc3c(F)cccc3Cl)c(=O)[nH]2)CC1 | 3.79 µM |
| O=S(=O)(c1ccccc1)N1CCN=C1SCc1c(F)cccc1Cl | 8.15 µM |
| O=C(NNc1nc2ccc(Cl)cc2s1)c1cc(-c2cccs2)nc2ccccc12 | 0.334 µM |
| COc1ccccc1C(NC(C)=O)c1cc(Cl)c2cccnc2c1O (configuration not stated) | 2.91 µM |
| Fc1cccc2sc(Nc3nnc(-c4ccccc4)o3)nc12 | 0.824 µM |
| CCn1ccnc1CN1CCc2c([nH]c3ccccc23)C1C1CCCCC1 (configuration not stated) | 2.02 µM |
| CCCCCCCC(=O)NNC(=O)c1c(O)c2ccccc2n(CCC)c1=O | 1.1 µM |
| CC(C)Cn1c(=O)c(C(=O)Nc2ccccc2S(N)(=O)=O)c(O)c2ccccc21 | 8.58 µM |
| O=C(c1cc(-c2cccs2)nc2ccccc12)N1CCN(c2ccccc2O)CC1 | 13.4 µM |
| COc1ccc(C(CNC(=O)c2cccc(S(=O)(=O)Nc3ccccc3Cl)c2)N2CCOCC2)cc1 (configuration not stated) | 11.1 µM |
| Cc1noc(C)c1-c1nnc(-c2ccc(OC(F)(F)F)cc2)o1 | > 15 µM (inactive) |
| CNC1=C(N(C(C)=O)c2ccc(Br)cc2)C(=O)c2ccccc2C1=O | 6.36 µM |
| Cc1cc(NC(=O)c2c(F)cccc2Cl)n(-c2nc3ccccc3[nH]2)n1 | 8.04 µM |
| CC1CCCCC1NC(=O)CCn1ccc2cc(S(=O)(=O)N3CCCC3)ccc21 (configuration not stated) | > 15 µM (inactive) |
| COc1cccc(COC(=O)c2sc3nc4n(c(=O)c3c2C)CCC4)c1OC | 4.76 µM |
| CCCCCCCCOC(=O)/C=C/c1c(C)[nH]c(=O)[nH]c1=O | 0.788 µM |
| CCOC(=O)c1cccc(NC(=S)N2CCN(c3ncc4c(=O)c(C(=O)O)cn(CC)c4n3)CC2)c1 | 6.28 µM |

| Structure (SMILES) | EC50 |
| --- | --- |
| O=C(/C=C/c1ccccc1)NCCc1ccccc1 | > 15 µM (inactive) |
| CCCc1nc(NCc2ccccc2)c(C#N)c2c1CCCC2 | 2.93 µM |
| CN(CC1CCCO1)S(=O)(=O)c1ccc(C(=O)Nc2nnc(-c3ccccc3)o2)cc1 (configuration not stated) | 2.62 µM |
| FC(F)(F)c1cccc(-c2cc3ccccc3nc2N2CCCC2)c1 | 3.6 µM |
| O=C(Nc1ccc(F)c(Cl)c1)Nc1csc2ccccc12 | 2.79 µM |
| O=C1[C@H]2C(c3ccccc3)=NN(c3ccccc3)[C@H]2C(=O)N1c1ccccc1 | 0.485 µM |
| CC[C@@H](C)[C@H](NC(=O)OC(C)(C)C)c1nnc(S(=O)(=O)Cc2cc(C)ccc2C)o1 | 9.66 µM |
| Oc1ccc2ccccc2c1/C=N/Nc1nnc(-c2ncc[nH]2)c2ccccc12 | 1.55 µM |
| CCCCCCCCCc1nc2sc3c(c2c(=O)n1NC(=O)c1ccc([N+](=O)[O-])cc1)CC(C)(C)OC3 | 3.5 µM |
| Cc1sc2ncnc(N/N=C/c3ccccc3O)c2c1C | 4.09 µM |
| Cc1ccc(Nc2c(-c3ccccn3)nc3cccc(C)n23)cc1 | 0.322 µM |
| O=C(Nc1nnc(C2=COCCO2)o1)c1ccc(Cc2ccccc2)cc1 | 1.47 µM |
| Cc1ccccc1/C=C/C(=O)c1ccc([N+](=O)[O-])o1 | 4.61 µM |
| CCCN(CC1CC1)c1nc(C)nc(Nc2c(Cl)cc(Cl)cc2Cl)c1Cl | 1.26 µM |
| COc1ccc(CCNC(=O)CSc2nncn2N)cc1OC | > 15 µM (inactive) |
| COc1ccc(C(=O)c2ccc(N3CCN(C4CC(=O)NC4=O)CC3)cc2)cc1F (configuration not stated) | 2.76 µM |
| CC(=O)OCC1=C(C(=O)O)N2C(=O)C(NC(=O)c3ccc(F)cc3)C2SC1 (configuration not stated) | 2.9 µM |
| CCOc1ccc(/C=N/NC(=S)NC2CC3CC2C2C=CCC32)cc1 (configuration not stated) | 5.48 µM |
| O=C(Nc1ccc(OC(F)F)cc1)Nc1cccc(C(F)(F)F)c1 | 6.7 µM |
| Cc1ccc(CNC(=S)Nc2ccc(NS(=O)(=O)c3ccc(C)cc3)cc2)cc1 | 8.28 µM |
| O=C(COC(=O)c1ccccc1Br)Nc1nnc(-c2ccccc2)o1 | 0.689 µM |
| Cn1ncc2c(Nc3cccc(Cl)c3)nc(Nc3cccc(Cl)c3)nc21 | 2.67 µM |

| Structure (SMILES) | EC50 |
| --- | --- |
| Cc1cccc(C(=O)Nc2scc(-c3ccc(Br)cc3)c2C(=O)O)c1 | 1.89 µM |
| CC(C)Cn1c2c(c(O)c(C(=O)Nc3ncccc3O)c1=O)CCCC2 | 2.35 µM |
| Cc1[nH]cnc1C(=O)N/N=C/c1ccc([N+](=O)[O-])s1 | 3.73 µM |
| O=C(O)CCCN1C(=O)/C(=C/c2cn(-c3ccccc3)nc2-c2cccs2)SC1=S | 2.72 µM |
| COc1ccc2cc(C(=O)NCc3ccccc3)c(=Nc3ccc(C(=O)O)cc3)oc2c1 | 3.83 µM |
| CN1C(=O)/C(=C\c2ccccc2F)Sc2ccc(C(=O)NC3CCN(Cc4ccccc4)CC3)cc21 | 6.22 µM |
| CCCCCCCCOC(=O)C1=C(C)Nc2nnnn2C1c1cccs1 (configuration not stated) | 3.45 µM |
| COc1cccc(/C=N/Nc2cc(N3CCOCC3)ncn2)c1O | 7.64 µM |
| CCn1cc(C(=O)O)c(=O)c2cc(F)c(N3CCN(C(=S)Nc4ccc(OC)cc4)CC3)cc21 | 3.18 µM |
| O=C(NC(=S)NNC(=O)[C@H]1C[C@@H]1c1ccccc1)c1cccc(F)c1 | 0.756 µM |
| O=S(=O)(Nc1ccc(-n2cccc2)cc1)c1ccc(Cl)c(Cl)c1 | 6.21 µM |
| COc1ccc(-n2c(SCC(=O)Nc3ccccc3)nc(O)cc2=O)cc1 | 15.2 µM |
| Cc1nn2c(N3CCN(C(=O)c4ccco4)CC3)cc(C(C)(C)C)nc2c1-c1ccccc1 | 6.19 µM |
| COc1ccc(CCNC(=O)c2ccc(CNS(=O)(=O)c3ccc(C(C)(C)C)cc3)cc2)cc1OC | 7 µM |
| CCCN(CCC)c1nc(-c2ccccn2)nc2ccccc12 | 0.074 µM |
| Cc1cccc(NC(=O)c2nc[nH]c2C(=O)N[C@@H](CC(C)C)C(=O)OCc2ccccc2)c1 | 1.68 µM |
| N#Cc1c(-c2ccccc2)nc(SCc2ccc(Cl)cc2)[nH]c1=O | 6.47 µM |
| Cc1ccccc1C(=O)Nc1scc(-c2ccc(Br)cc2)c1C(=O)O | 1.82 µM |
| O=C(c1cc2ccccc2cc1O)N1CCN(c2ccccc2O)CC1 | 9.87 µM |
| Cc1cc(/C=C2\C(=N)N3N=C(S(C)(=O)=O)SC3=NC2=O)c(C)n1Cc1ccccc1 | 4.77 µM |
| O=C(Nc1nc(-c2ccccc2)c(-c2ccccc2)o1)c1ccc(F)cc1 | 0.561 µM |
| Cc1cc(Oc2ccc(-c3ccccc3)cc2)nc(N2CCOCC2)n1 | 5.71 µM |

| Structure (SMILES) | EC50 |
| --- | --- |
| CN(C)S(=O)(=O)c1ccc(C(=O)Nc2nnc(-c3ccc4c(c3)CCCC4)o2)cc1 | 0.144 µM |
| C/C(=N\NC(=O)c1ccc(Cl)c(Cl)c1)c1ccccn1 | 0.063 µM |
| CN(C(=O)Cc1c(C(=O)O)n(C)c2ccccc12)c1ccc(F)cc1 | > 15 µM (inactive) |
| COc1ccc(C2C(C(=O)c3ccccc3)=C(C)Nc3nc4ccccc4n32)c(OC)c1 (configuration not stated) | 6.1 µM |
| CN1C(=O)/C(=C/c2ccccc2F)Sc2ccc(C(=O)NCC3CCCO3)cc21 (configuration not stated) | 1.53 µM |
| COc1cc(OC)c([C@H]2C=C(C)[C@H]3C[C@@H]2C3(C)C)c(OC)c1 | 2.6 µM |
| CCc1nnc(NC(=O)c2ccc(S(=O)(=O)N3CCCc4ccccc43)cc2)o1 | 1.68 µM |
| CCC1(C)Cc2ccccc2-c2nc(-c3ccccc3)oc(=O)c21 (configuration not stated) | 5.51 µM |
| CCN1CCN(C(c2ccc(C(F)(F)F)cc2)c2ccc3cccnc3c2O)CC1 (configuration not stated) | 1.82 µM |
| Nc1cc(-c2ccc(OC(F)(F)F)cc2)nn1-c1ccc(Cl)c(Cl)c1 | 6.17 µM |
| CCc1ccc(NC(=O)c2ccc(F)c(S(=O)(=O)NCC3COc4ccccc4O3)c2)cc1 (configuration not stated) | 5.34 µM |
| NNC(=O)/C(=N/Nc1ccccc1)S(=O)(=O)c1ccc(Cl)cc1 | 8.15 µM |
| O=C(Nc1nnc(-c2ccncc2)o1)c1ccc2ccccc2c1 | 5.02 µM |
| O=C(CCC(=O)Nc1ccc(Br)cc1)N/N=C/c1ccccc1O | 5.07 µM |
| CC12CCC(C(=O)NNC(=O)c3ccccc3)(OC1=O)C2(C)C (configuration not stated) | > 15 µM (inactive) |
| Cc1cc([N+](=O)[O-])cc(/C=N\NC(=O)C2COc3ccccc3O2)c1O (configuration not stated) | 1.52 µM |
| CC(C)C[C@H](NC(=O)N1CC(=O)Nc2ccccc21)C(=O)N[C@H](C(=O)O)c1ccccc1 | > 15 µM (inactive) |
| O=[N+]([O-])c1ccc(O)c(-c2nc(-c3ccccc3)c(-c3cccs3)[nH]2)c1 | 0.979 µM |
| O=C(Nc1nnc(-c2ccco2)o1)c1ccc(Cl)cc1 | 1.21 µM |
